Common to all, as to format: physicochemical
Series [1] is described as follows: pKa of the dyes in aqueous solution, derived from the absorbance spectra. The source says: The pKa values, i.e. the approximate pH values of an aqueous solution of the dye where the acid and base forms of the dye are present in equal concentrations, were derived from the absorbance spectra and are listed in the Table below. As mentioned above, indicator dyes are generally most sensitive to pH changes near their pKa s.

The nature of series [2]: Absorbance and fluorescence emission spectra of acid and base forms of the dyes. The conditions noted are these: Table, footnote c. The protocol:
Certain properties of the carbazine dyes of Examples 1-7 were determined. Spectral data were obtained either with a Hewlett Packard Model 8452A Diode Array Spectrophotometer or a Perkin Elmer Model LS 50B Luminescence Spectrometer. All of the dyes are similar in their absorbance and emission spectra, with only slight differences in peak locations, ratios of absorbance of acid to absorbance of base, and pKa s. The unmodified dyes show large separation between absorbance peaks for acid and base forms. Typically, the acid form has a peak absorbance at about 480 nm, and the base form has a peak absorbance at about 660 nm. Fluorescence emission of the base form has a well-defined single peak at approximately 690 nm.

A short description of series [3]: Fluorescence rating / quantum yield in aqueous solution. The conditions noted are these: for Fluorescence: relative scale of 1 to 10 where 10 is best, excitation at maximum absorbance wavelength, constant concentration and pH. The text has this: The fluorescence ratings shown in the Table are based on the maximum fluorescence obtainable from an aqueous carbazine dye solution with excitation at the maximum absorbance wavelength for the particular dye, but with concentrations and pH constant between all dyes. […] Quantum yields of the acid forms of the dyes appears as high as the base forms. The carbazine dye of Example 4, sold commercially as "CARBAZINE 720" (Exciton, Inc., Dayton, Ohio), has a quantum yield of approximately 50% in aqueous solution containing base.

The term pKa denotes the negative logarithm of the acid dissociation constant. Read a low pKa as a stronger acid or weaker base.

`CC1=C(C)C2(C3=CC(=O)C=CC3=Nc3ccc(O)cc32)C(C)=C(C)C1=O` [Example 4, 7-hydroxy-2',3',5',6'-tetramethylspiro[acridine-9,1'-cyclohexa-2', 5'-diene]-2(9H), 4'-dione]: the pKa in series [1] was found to be 6.5. Besides, the “Absorbance ratio of acid/base” value in series [2] is 0.388. Besides, in series [3] (aqueous solution containing base), the quantum yield entry is reported as “approximately 50%”. This molecule also gave a Fluorescence in series [3] of 10.
In series [1], `O=C1C=CC2=Nc3ccc(O)cc3C3(C=CC(=O)C4=C3CCCC4)C2=C1` (stereo not shown) [Example 5] showed a pKa of 6.7. In addition, the “Absorbance ratio of acid/base” value in series [2] came to 0.387. In series [3], this molecule registered a Fluorescence of 8.
`CC1=CC(=O)C=C(C)C12C1=CC(=O)C=CC1=Nc1ccc(O)cc12` [Example 2] came in with a pKa in series [1] of 6.5. Also, the “Absorbance ratio of acid/base” value in series [2] is given as 0.391. Further, in series [3], the Fluorescence is recorded as 7.
The molecule `CC1=CC(=O)C=C(C(C)C)C12C1=CC(=O)C=CC1=Nc1ccc(O)cc12` (stereo not shown) [Example 6] yielded a pKa in series [1] of 6.4. Besides, in series [2], the “Absorbance ratio of acid/base” value stood at 0.377. The Fluorescence in series [3] came to 7.
In the case of `CC(C)(C)C1=CC2(C=CC1=O)C1=CC(=O)C=CC1=Nc1ccc(O)cc12` (stereo not shown) [Example 7], the pKa in series [1] was found to be 7.2. Further, the “Absorbance ratio of acid/base” value in series [2] is on record as 0.324. Further, in series [3], the Fluorescence is given as 6.
For `O=C1C=CC2(C=C1)C1=CC(=O)C=CC1=Nc1ccc(O)cc12` [Example 1, 7-hydroxyspiro[acridine-9,1'-cyclohexa-2',5'-diene]-2(9H),4'-dione], the pKa in series [1] was 6.5. Also, in series [2], the “Absorbance ratio of acid/base” value worked out at 0.426. For the same molecule, the Fluorescence in series [3] turned out to be 2.
The corresponding values for `CC1=CC(=O)C(C)=C(C)C12C1=CC(=O)C=CC1=Nc1ccc(O)cc12` (stereo not shown) [Example 3] are 6.5, 0.380 and 10.

These data come from patent US5567624A, “Carbazine dyes and derivatives for pH measurement” (Utah Medical Products, Inc., priority 1995, dated 1996).
